Laboratory results as given in US8822530B2, “Sulfur derivatives as chemokine receptor modulators” (Allergan, Inc., priority 2010, dated 2014).

What follows are molecules tested against T1, CCR2 receptor (Homo sapiens, UniProt P41597) (assay: Calcium activity assay on FLIPR Tetra in HEK-Gqi5 cells stably expressing CCR2).
T1 construct: expressed in transfected cells
Assay type: cell-based
Procedure: HEK-Gqi5 cells stably expressing CCR2 were cultured in DMEM high glucose, 10% FBS, 1% PSA, 400 μg/ml geneticin and 50 μg/ml hygromycin. Appropriate positive control chemokines (MCP-1, MIP1A or RANTES) was used as the positive control agonist for screening compound-induced calcium activity assayed on the FLIPR^Tetra. The drug plates were prepared in 384-well microplates using the EP3 and the MultiPROBE robotic liquid handling systems. Compounds were synthesized and tested for CCR2 activity.

T1 sequence (P41597 whole entry): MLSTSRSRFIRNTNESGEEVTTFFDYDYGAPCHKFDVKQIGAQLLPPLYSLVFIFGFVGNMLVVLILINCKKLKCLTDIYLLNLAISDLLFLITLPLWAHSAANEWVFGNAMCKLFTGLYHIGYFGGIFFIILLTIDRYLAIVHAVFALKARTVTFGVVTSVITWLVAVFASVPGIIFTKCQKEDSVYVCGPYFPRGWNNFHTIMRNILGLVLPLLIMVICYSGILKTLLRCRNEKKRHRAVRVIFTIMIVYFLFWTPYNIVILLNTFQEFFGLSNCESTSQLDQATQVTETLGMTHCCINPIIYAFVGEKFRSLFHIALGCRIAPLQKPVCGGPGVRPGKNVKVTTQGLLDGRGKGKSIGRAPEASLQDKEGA

Row | Compound | CCR2 % ANTAGONISM | IC50
1 | O=C(O)CCS(=O)(=O)c1ccc(Cl)cc1NS(=O)(=O)c1ccc(Cl)cc1F [3-[(4-chloro-2-{[(4-chloro-2-fluorophenyl)sulfonyl]amino}phenyl)sulfonyl]propanoic acid] | 90% | 
2 | N#Cc1ccc(NS(=O)(=O)c2cc3ccccc3o2)c(S(=O)(=O)Cc2ccccc2)c1 [N-[2-(benzylsulfonyl)-4-cyanophenyl]-1-benzofuran-2-sulfonamide] | 96% | 888 nM
3 | O=C(CCS(=O)(=O)c1ccc(Cl)cc1NS(=O)(=O)c1ccc(Cl)c(C(F)(F)F)c1)N1CCCC1 [4-chloro-N-(5-chloro-2-{[3-oxo-3-(pyrrolidin-1-yl)propyl]sulfonyl}phenyl)-3-(trifluoromethyl)benzenesulfonamide] | 58% | 
4 | CS(=O)(=O)Nc1cccc(CSc2ccc(Cl)cc2NS(=O)(=O)c2cc3ccccc3o2)c1 [N-[5-chloro-2-({3-[(methylsulfonyl)amino]benzyl}sulfanyl)phenyl]-1-benzofuran-2-sulfonamide] | 90% | 1280 nM
5 | N#Cc1ccc(NS(=O)(=O)c2cc3ccccc3o2)c([S+]([O-])Cc2ccccc2)c1 (stereo not drawn) [N-[2-(benzylsulfinyl)-4-cyanophenyl]-1-benzofuran-2-sulfonamide] | 94% | 1030 nM
6 | O=C(NCCN1CCCC1)c1ccc(CSc2ccc(Cl)cc2NS(=O)(=O)c2ccc(Cl)c(C(F)(F)F)c2)cc1 [4-({[4-chloro-2-({[4-chloro-3-(trifluoromethyl)phenyl]sulfonyl}amino)phenyl]sulfanyl}methyl)-N-[2-(pyrrolidin-1-yl)ethyl]benzamide] | 75% | 2320 nM
7 | O=C(NCCN1CCCC1)c1cccc(C[S+]([O-])c2ccc(Cl)cc2NS(=O)(=O)c2ccc(Cl)c(C(F)(F)F)c2)c1 (stereo not drawn) [3-({[4-chloro-2-({[4-chloro-3-(trifluoromethyl)phenyl]sulfonyl}amino)phenyl]sulfinyl}methyl)-N-[2-(pyrrolidin-1-yl)ethyl]benzamide] | 105% | 910 nM
8 | O=S(=O)(Nc1cc(Cl)ccc1SCc1ccccc1)c1ccc(Cl)c(C(F)(F)F)c1 [N-[2-(benzylsulfanyl)-5-chlorophenyl]-4-chloro-3-(trifluoromethyl)benzenesulfonamide] | 68% | 1280 nM
9 | COC(=O)CCSc1ccc(Cl)cc1NS(=O)(=O)c1ccc(Cl)cc1F [methyl 3-[(4-chloro-2-{[(4-chloro-2-fluorophenyl)sulfonyl]amino}phenyl)sulfanyl]propanoate] | 79% | 995 nM
10 | CCN(C)C(=O)CCSc1ccc(Cl)cc1NS(=O)(=O)c1ccc(Cl)cc1F [3-[(4-chloro-2-{[(4-chloro-2-fluorophenyl)sulfonyl]amino}phenyl)sulfanyl]-N-ethyl-N-methylpropanamide] | 49% | 
11 | O=C(O)CC[S+]([O-])c1ccc(Cl)cc1NS(=O)(=O)c1ccc(Cl)cc1F (stereo not drawn) [3-[(4-chloro-2-{[(4-chloro-2-fluorophenyl)sulfonyl]amino}phenyl)sulfinyl]propanoic acid] | 83% | 
12 | O=C(CCSc1ccc(Cl)cc1NS(=O)(=O)c1ccc(Cl)c(C(F)(F)F)c1)N1CCCC1 [4-chloro-N-(5-chloro-2-{[3-oxo-3-(pyrrolidin-1-yl)propyl]sulfanyl}phenyl)-3-(trifluoromethyl)benzenesulfonamide] | 60% | 2290 nM
13 | CC(=O)Nc1cccc(CS(=O)(=O)c2ccc(Cl)cc2NS(=O)(=O)c2cc3ccccc3o2)c1 [N-{3-[({2-[(1-benzofuran-2-ylsulfonyl)amino]-4-chlorophenyl}sulfonyl)methyl]phenyl}acetamide] | 100% | 854 nM
14 | O=C(O)c1cccc(C[S+]([O-])c2ccc(Cl)cc2NS(=O)(=O)c2ccc(Cl)c(C(F)(F)F)c2)c1 (stereo not drawn) [3-({[4-chloro-2-({[4-chloro-3-(trifluoromethyl)phenyl]sulfonyl}amino)phenyl]sulfinyl}methyl)benzoic acid] | 89% | 
15 | O=C(NCCN1CCCC1)c1cccc(CSc2ccc(Cl)cc2NS(=O)(=O)c2ccc(Cl)c(C(F)(F)F)c2)c1 [3-({[4-chloro-2-({[4-chloro-3-(trifluoromethyl)phenyl]sulfonyl}amino)phenyl]sulfanyl}methyl)-N-[2-(pyrrolidin-1-yl)ethyl]benzamide] | 97% | 2170 nM
16 | O=C(O)c1ccccc1C[S+]([O-])c1ccc(F)cc1NS(=O)(=O)c1cc2ccccc2o1 (stereo not drawn) [2-[({2-[(1-benzofuran-2-ylsulfonyl)amino]-4-fluorophenyl}sulfinyl)methyl]benzoic acid] | 92% | 1850 nM

Continued by falling IC50, values first:

Row | CCR2 % ANTAGONISM | IC50 | Compound
17 | 43% | 657 nM | CC(C)(C)OC(=O)CNC(=O)c1ccc(CSc2ccc(Cl)cc2NS(=O)(=O)c2ccc(Cl)c(C(F)(F)F)c2)cc1 [tert-butyl ({[4-({[4-chloro-2-({[4-chloro-3-(trifluoromethyl)phenyl]sulfonyl}amino)phenyl]sulfanyl}methyl)phenyl]carbonyl}amino)acetate]
18 | 93% | 272 nM | COC(=O)c1ccccc1CSc1ccc(F)cc1NS(=O)(=O)c1cc2ccccc2o1 [methyl 2-[({2-[(1-benzofuran-2-ylsulfonyl)amino]-4-fluorophenyl}sulfanyl)methyl]benzoate]
19 | 102% | 255 nM | O=C(O)c1ccc(CSc2ccc(Cl)cc2NS(=O)(=O)c2ccc(Cl)c(C(F)(F)F)c2)cc1 [4-({[4-chloro-2-({[4-chloro-3-(trifluoromethyl)phenyl]sulfonyl}amino)phenyl]sulfanyl}methyl)benzoic acid]
20 | 88% | 167 nM | NC(=O)c1ccccc1CSc1ccc(Cl)cc1NS(=O)(=O)c1ccc(Cl)c(C(F)(F)F)c1 [2-({[4-chloro-2-({[4-chloro-3-(trifluoromethyl)phenyl]sulfonyl}amino)phenyl]sulfanyl}methyl)benzamide]
21 | 92% | 149 nM | CCNC(=O)c1ccccc1CSc1ccc(Cl)cc1NS(=O)(=O)c1ccc(Cl)c(C(F)(F)F)c1 [2-({[4-chloro-2-({[4-chloro-3-(trifluoromethyl)phenyl]sulfonyl}amino)phenyl]sulfanyl}methyl)-N-ethylbenzamide]
22 | 102% | 129 nM | O=C(O)CCSc1ccc(Cl)cc1NS(=O)(=O)c1ccc(Cl)cc1F [3-[(4-chloro-2-{[(4-chloro-2-fluorophenyl)sulfonyl]amino}phenyl)sulfanyl]propanoic acid]
23 | 99% | 79 nM | O=C(O)c1ccccc1CSc1ccc(Cl)cc1NS(=O)(=O)c1ccc(Cl)c(C(F)(F)F)c1 [2-({[4-chloro-2-({[4-chloro-3-(trifluoromethyl)phenyl]sulfonyl}amino)phenyl]sulfanyl}methyl)benzoic acid]
24 | 90% | 41 nM | COC(=O)c1ccccc1CS(=O)(=O)c1ccc(F)cc1NS(=O)(=O)c1cc2ccccc2o1 [methyl 2-[({2-[(1-benzofuran-2-ylsulfonyl)amino]-4-fluorophenyl}sulfonyl)methyl]benzoate]
25 | 101% | 7 nM | O=C(O)c1ccccc1CSc1ccc(Cl)cc1NS(=O)(=O)c1cc2ccccc2o1 [2-[({2-[(1-benzofuran-2-ylsulfonyl)amino]-4-chlorophenyl}sulfanyl)methyl]benzoic acid]
